Reference: patent US20080025940A1, “Administration of 3-sulfanylpropanamide compounds for stimulating hair and eyelash growth and/or for stopping the loss and/or limiting the depigmentation thereof” (L'OREAL, priority 2005, published 2008)

Target: T1, 15-PGDH (Homo sapiens, UniProt P15428)
T1 construct: made in house
T1 sequence (P15428 1-266): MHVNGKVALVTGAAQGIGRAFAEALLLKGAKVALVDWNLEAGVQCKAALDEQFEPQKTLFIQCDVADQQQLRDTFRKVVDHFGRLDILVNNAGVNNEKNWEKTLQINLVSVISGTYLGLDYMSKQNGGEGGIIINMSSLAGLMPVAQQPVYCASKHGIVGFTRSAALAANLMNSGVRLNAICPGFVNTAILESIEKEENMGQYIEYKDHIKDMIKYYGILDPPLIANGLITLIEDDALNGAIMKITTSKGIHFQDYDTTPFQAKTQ
Test: Test on 15-PGDH (spectrophotometric, NAD/PGE2, 340 nm)
Format: biochemical
Details: at 100 μM
Protocol: The enzyme 15-PGDH is obtained as described in FR 02/05067 filed in the name of L'Oreal, as a suspension in a medium adjusted to a concentration of 0.3 mg/mL and then blocked at −80° C. For the purposes of the test, this suspension is thawed and stored in ice.
In parallel, a 100 mM, pH 7.4 Tris buffer containing 0.1 mM of dithiothreitol (D5545, Sigma-Aldrich, L'isle D'Abeau Chesne, BP 701, 38297, Saint Quentin Fallavier), 1.5 mM of β-NAD (N6522, Sigma-Aldrich, L'isle D'Abeau Chesne, BP 701, 38297, Saint Quentin Fallavier), and 50 μM of prostaglandin E2 (P4172, Sigma-Aldrich, L'isle D'Abeau Chesne, BP 701, 38297, Saint Quentin Fallavier) is prepared.
0.965 ml of this buffer (brought to 37° C. beforehand) is introduced into the cuvette of a spectrophotometer (Perkin-Elmer, Lambda 2) thermostatically maintained at 37° C., the measuring wavelength of which is set at 340 nm. 0.035 mL of enzymatic suspension at 37° C. is introduced into the cuvette concomitantly with the recording (corresponding to an increase in the optical density at 340 nm). The maximum reaction rate is recorded.

Molecule	inhibition at 100 µM
CSCCC(=O)Nc1ccccc1C(F)(F)F [Example 5, 3-(methylsulfanyl)-N-[2-(trifluoromethyl)phenyl]propanamide]	21%

Same assay, conditions: pH 7.4 Tris buffer, 37° C., 50 μM prostaglandin E2, 1.5 mM β-NAD; read-out: IC50 (concentration reducing the enzymatic activity of 15-PGDH by 50%, IC50dh)

Molecule	IC50
CSCCC(=O)NCc1ccco1 [Example 2, N-(2-furylmethyl)-3-(methylsulfanyl)propanamide]	9.8 µM
N-benzyl-3-(methylsulfanyl)propanamide [Example 6]	1.6 µM
CCCCCCNC(=O)CCSC [Example 4, N-hexyl-3-(methylsulfanyl)propanamide]	12 µM
CSCCC(=O)NC1CCC1 [Example 8, N-cyclobutyl-3-(methylsulfanyl)propanamide]	47 µM
CSCCC(=O)NCc1ccc(C)o1 [Example 1, N-[(5-methyl-2-furyl)methyl]-3-(methylsulfanyl)propanamide]	0.8 µM
COc1ccc(CNC(=O)CCSC)cc1 [Example 3, N-(4-methoxybenzyl)-3-(methylsulfanyl)propanamide]	6 µM
CSCCC(=O)NC(C)c1ccccc1 (centres unmarked) [Example 7, 3-(methylsulfanyl)-N-(1-phenylethyl)propanamide]	14.7 µM
